In US9145392B2, “Imidazole amines as modulators of kinase activity” (Merck Patent GmbH, priority 2011, dated 2015):
Values belong to the compound of their own block, whether it stands above or below them.

Experiments:
P70S6K (T412E mutant) = P70S6K (T412E mutant) (Homo sapiens (Human), UniProt P23443, T412E); assay: P70S6K enzyme assay; format: biochemical; conditions: read-out: IC50 p70S6K
Outline: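 Phosphorylated product and substrate peptide separated by microfluidic capillary electrophoresis (Caliper LabChip 3000), product peaks resolving before substrate.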

His-AKT (Full Length) = His-AKT (Full Length) (Homo sapiens (Human), UniProt P31749); assay: AKT enzyme assay; format: biochemical; conditions: read-out: IC50 AKT
Sequence of His-AKT (Full Length) (P31749 whole entry): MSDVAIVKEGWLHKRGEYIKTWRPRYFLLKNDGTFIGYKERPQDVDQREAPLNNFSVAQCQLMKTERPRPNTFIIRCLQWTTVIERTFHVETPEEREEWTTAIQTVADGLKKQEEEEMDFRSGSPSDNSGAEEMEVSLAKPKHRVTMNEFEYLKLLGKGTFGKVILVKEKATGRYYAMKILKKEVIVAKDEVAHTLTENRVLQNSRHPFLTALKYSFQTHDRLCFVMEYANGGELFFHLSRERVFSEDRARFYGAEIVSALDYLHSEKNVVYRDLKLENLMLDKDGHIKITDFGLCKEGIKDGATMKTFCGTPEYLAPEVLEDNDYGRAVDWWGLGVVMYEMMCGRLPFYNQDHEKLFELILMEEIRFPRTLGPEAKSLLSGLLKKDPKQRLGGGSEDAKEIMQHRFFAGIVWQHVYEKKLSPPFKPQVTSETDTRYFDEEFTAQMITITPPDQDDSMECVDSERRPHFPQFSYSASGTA

Sequence of P70S6K (T412E mutant) (P23443 whole entry T412E): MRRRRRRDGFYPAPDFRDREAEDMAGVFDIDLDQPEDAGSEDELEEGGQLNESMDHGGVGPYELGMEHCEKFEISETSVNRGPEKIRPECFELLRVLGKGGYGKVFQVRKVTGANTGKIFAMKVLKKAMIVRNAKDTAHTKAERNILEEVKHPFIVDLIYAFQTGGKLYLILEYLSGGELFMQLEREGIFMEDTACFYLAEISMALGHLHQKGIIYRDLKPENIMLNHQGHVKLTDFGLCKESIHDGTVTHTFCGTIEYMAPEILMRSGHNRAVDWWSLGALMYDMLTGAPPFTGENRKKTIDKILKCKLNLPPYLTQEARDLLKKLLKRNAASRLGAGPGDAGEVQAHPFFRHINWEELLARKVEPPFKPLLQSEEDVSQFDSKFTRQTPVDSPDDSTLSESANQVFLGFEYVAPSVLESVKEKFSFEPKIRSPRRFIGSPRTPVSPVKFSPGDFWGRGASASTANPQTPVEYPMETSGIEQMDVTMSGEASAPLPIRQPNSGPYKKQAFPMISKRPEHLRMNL

Structure (SMILES): Nc1ncnc(N2CCC(c3nc(-c4ccnc(C(F)(F)F)c4)cn3CCN3CCC3)CC2)c1OCC(F)(F)F [Compound 118, 6-(4-(1-(2-(azetidin-1-yl)ethyl)-4-(2-(trifluoromethyl)pyridin-4-yl)-1H-imidazol-2-yl)piperidin-1-yl)-5-(2,2,2-trifluoroethoxy)pyrimidin-4-amine]
IC50 (P70S6K (T412E mutant)): 9.7 nM
IC50 (His-AKT (Full Length)): 21 nM

Structure (SMILES): CCc1c(N)ncnc1N1CCC(c2nc(-c3ccc(F)cc3)cn2CCN2CCC23COC3)CC1 [Compound 204, 5-Ethyl-6-(4-{4-(4-fluoro-phenyl)-1-[2-(6-oxa-1-aza-spiro[3.3]hept-1-yl)-ethyl]-1H-imidazol-2-yl}-piperidin-1-yl)-pyrimidin-4-ylamine]
IC50 (P70S6K (T412E mutant)): 37 nM
IC50 (His-AKT (Full Length)): 3600 nM

Structure (SMILES): Nc1ncnc(N2CCC(c3nc(-c4ccc(O)c(C(F)(F)F)c4)cn3CCN3CCCC3)CC2)c1Cl [Compound 210]
IC50 (P70S6K (T412E mutant)): 3.7 nM
IC50 (His-AKT (Full Length)): 3 nM

Structure (SMILES): Nc1ncnc(N2CCC(c3nc(-c4ccc(F)c(C(F)(F)F)c4)cn3CCN3CCCCC3)CC2)c1-c1ccc(F)cc1 [Compound 62]
IC50 (P70S6K (T412E mutant)): 18 nM
IC50 (His-AKT (Full Length)): 350 nM

Structure (SMILES): Nc1ncnc(N2CCC(c3nc(-c4ccc(Cl)cc4)cn3CCN3CCCC3)CC2)c1C1CCC1 [Compound 263]
IC50 (P70S6K (T412E mutant)): 25 nM
IC50 (His-AKT (Full Length)): 79 nM

Structure (SMILES): Nc1cc(N2CCC(c3nc(-c4cccc(F)c4)cn3CCN3CCCC3)CC2)ncn1 [Compound 244]
IC50 (P70S6K (T412E mutant)): 25 nM
IC50 (His-AKT (Full Length)): 210 nM

Structure (SMILES): CN(C)CCn1cc(-c2ccc(F)c(C(F)(F)F)c2)nc1C1CCN(c2ncnc(N)c2C(N)=O)CC1 [Compound 38, 4-Amino-6-{4-[1-(2-dimethylamino-ethyl)-4-(4-fluoro-3-trifluoromethyl-phenyl)-1H-imidazol-2-yl]-piperidin-1-yl}-pyrimidine-5-carboxylic acid amide]
IC50 (P70S6K (T412E mutant)): 3.5 nM
IC50 (His-AKT (Full Length)): 84 nM

Structure (SMILES): COCCN(C)CCn1cc(-c2ccc(F)c(C(F)(F)F)c2)nc1C1CCN(c2ncnc(N)c2C#N)CC1 [Compound 363, 4-Amino-6-[4-(4-(4-fluoro-3-trifluoromethyl-phenyl)-1-{2-[(2-methoxy-ethyl)-methyl-amino]-ethyl}-1H-imidazol-2-yl)-piperidin-1-yl]-pyrimidine-5-carbonitrile]
IC50 (P70S6K (T412E mutant)): 3.4 nM
IC50 (His-AKT (Full Length)): 26 nM

Structure (SMILES): Nc1ncnc(N2CCC(c3nc(-c4ccc(F)c(C(F)(F)F)c4)cn3C[C@@H]3CCN3)CC2)c1Cl [Compound 149, (S)-6-(4-(1-(azetidin-2-ylmethyl)-4-(4-fluoro-3-(trifluoromethyl)phenyl)-1H-imidazol-2-yl)piperidin-1-yl)-5-chloropyrimidin-4-amine]
IC50 (P70S6K (T412E mutant)): 4.8 nM
IC50 (His-AKT (Full Length)): 38 nM

Structure (SMILES): NC(=O)c1c(N)ncnc1N1CCC(c2nc(-c3ccc(F)c(C(F)(F)F)c3)cn2C2CNC2)CC1 [Compound 143, 4-amino-6-(4-(1-(azetidin-3-yl)-4-(4-fluoro-3-(trifluoromethyl)phenyl)-1H-imidazol-2-yl)piperidin-1-yl)pyrimidine-5-carboxamide]
IC50 (P70S6K (T412E mutant)): 16 nM
IC50 (His-AKT (Full Length)): 670 nM

Structure (SMILES): CC(C)CNCCn1cc(-c2ccc(F)c(C(F)(F)F)c2)nc1C1CCN(c2ncnc(N)c2C(N)=O)CC1 [Compound 373, 4-Amino-6-{4-[4-(4-fluoro-3-trifluoromethyl-phenyl)-1-(2-isobutylamino-ethyl)-1H-imidazol-2-yl]-piperidin-1-yl}-pyrimidine-5-carboxylic acid amide]
IC50 (P70S6K (T412E mutant)): 2.9 nM
IC50 (His-AKT (Full Length)): 12 nM

Structure (SMILES): Cc1cc(-c2cn(CC3CNC3)c(C3CCN(c4ncnc(N)c4C#N)CC3)n2)ccc1F [Compound 191, 4-amino-6-(4-(1-(azetidin-3-ylmethyl)-4-(4-fluoro-3-methylphenyl)-1H-imidazol-2-yl)piperidin-1-yl)pyrimidine-5-carbonitrile]
IC50 (P70S6K (T412E mutant)): 7.4 nM
IC50 (His-AKT (Full Length)): 15 nM

Structure (SMILES): C=C(C)c1c(N)ncnc1N1CCC(c2nc(-c3ccc(F)c(C(F)(F)F)c3)cn2CCN2CCCCC2)CC1 [Compound 212]
IC50 (P70S6K (T412E mutant)): 6.7 nM
IC50 (His-AKT (Full Length)): 16 nM

Structure (SMILES): CCOc1c(N)ncnc1N1CCC(c2nc(-c3ccc(F)c(C(F)(F)F)c3)cn2CC2CNC2)CC1 [Compound 176, 6-(4-(1-(azetidin-3-ylmethyl)-4-(4-fluoro-3-(trifluoromethyl)phenyl)-1H-imidazol-2-yl)piperidin-1-yl)-5-ethoxypyrimidin-4-amine]
IC50 (P70S6K (T412E mutant)): 5.5 nM
IC50 (His-AKT (Full Length)): 5 nM

Structure (SMILES): C=Cc1c(N)ncnc1N1CCC(c2nc(-c3ccc(C(F)(F)F)cc3)cn2CCN2CCCC2)CC1 [Compound 269]
IC50 (P70S6K (T412E mutant)): 10 nM
IC50 (His-AKT (Full Length)): 190 nM

Structure (SMILES): CCc1c(N)ncnc1N1CCC(c2nc(-c3ccc(F)c(F)c3)cn2CCN2CC(F)C2)CC1 [Compound 199, 6-(4-{4-(3,4-Difluoro-phenyl)-1-[2-(3-fluoro-azetidin-1-yl)-ethyl]-1H-imidazol-2-yl}-piperidin-1-yl)-5-ethyl-pyrimidin-4-ylamine]
IC50 (P70S6K (T412E mutant)): 12 nM
IC50 (His-AKT (Full Length)): 385 nM

Structure (SMILES): Nc1ncnc(N2CCC(c3nc(-c4cccc(C(F)(F)F)c4)cn3CCN3CCCC3)CC2)c1C1CCC1 [Compound 261]
IC50 (P70S6K (T412E mutant)): 6.3 nM
IC50 (His-AKT (Full Length)): 8.1 nM

Structure (SMILES): CCc1c(N)ncnc1N1CCC(c2nc(-c3cccc(F)c3)cn2CCN2CCCC2)CC1 [Compound 231]
IC50 (P70S6K (T412E mutant)): 3.6 nM
IC50 (His-AKT (Full Length)): 46 nM

Structure (SMILES): CCc1c(N)ncnc1N1CCC(c2nc(-c3cccc(F)c3)cn2CCN2CCC2)CC1 [Compound 278]
IC50 (P70S6K (T412E mutant)): 4.6 nM
IC50 (His-AKT (Full Length)): 79.5 nM

Structure (SMILES): Cc1cc(-c2cn(CCN3CCCC3)c(C3CCN(c4ncnc(N)c4OC(C)C)CC3)n2)ccc1F [Compound 299]
IC50 (P70S6K (T412E mutant)): 10 nM
IC50 (His-AKT (Full Length)): 8.9 nM

Structure (SMILES): CCc1c(N)ncnc1N1CCC(c2nc(-c3ccc(OC)c(C(N)=O)c3)cn2CCN2CCC2)CC1 [Compound 107, 5-(2-(1-(6-amino-5-ethylpyrimidin-4-yl)piperidin-4-yl)-1-(2-(azetidin-1-yl)ethyl)-1H-imidazol-4-yl)-2-methoxybenzamide]
IC50 (P70S6K (T412E mutant)): 98 nM
IC50 (His-AKT (Full Length)): 160 nM

Structure (SMILES): Cc1cc(-c2cn(CCNCC3CC3)c(C3CCN(c4ncnc(N)c4C(N)=O)CC3)n2)ccc1F [Compound 383, 4-Amino-6-{4-[1-[2-(cyclopropylmethyl-amino)-ethyl]-4-(4-fluoro-3-methyl-phenyl)-1H-imidazol-2-yl]-piperidin-1-yl}-pyrimidine-5-carboxylic acid amide]
IC50 (P70S6K (T412E mutant)): 3.3 nM
IC50 (His-AKT (Full Length)): 8.4 nM

Structure (SMILES): CC(C)Oc1c(N)ncnc1N1CCC(c2nc(-c3ccc(F)c(C(F)(F)F)c3)cn2CCN(C)C)CC1 [Compound 292]
IC50 (P70S6K (T412E mutant)): 3.4 nM
IC50 (His-AKT (Full Length)): 7.6 nM

Structure (SMILES): CCc1c(N)ncnc1N1CCC(c2nc(-c3ccc(F)c(F)c3)cn2CCN2CCC2)CC1 [Compound 282]
IC50 (P70S6K (T412E mutant)): 3.8 nM
IC50 (His-AKT (Full Length)): 24 nM

Structure (SMILES): Nc1ncnc(N2CCC(c3nc(-c4ccc(C(F)(F)F)c(F)c4)cn3CCN3CCCCC3)CC2)c1C1CCC1 [Compound 253]
IC50 (P70S6K (T412E mutant)): 19 nM
IC50 (His-AKT (Full Length)): 28 nM

Compounds with a lower IC50 (P70S6K (T412E mutant)), results first:

IC50 (P70S6K (T412E mutant)): 0.9 nM
IC50 (His-AKT (Full Length)): 1.7 nM
Structure (SMILES): CNCCn1cc(-c2ccc(F)c(C)c2)nc1C1CCN(c2ncnc(N)c2C#N)CC1 [Compound 394, 4-Amino-6-{4-[4-(4-fluoro-3-methyl-phenyl)-1-(2-methylamino-ethyl)-1H-imidazol-2-yl]-piperidin-1-yl}-pyrimidine-5-carbonitrile]

IC50 (P70S6K (T412E mutant)): 1.4 nM
IC50 (His-AKT (Full Length)): 5.9 nM
Structure (SMILES): Nc1ncnc(N2CCC(c3nc(-c4cccc(F)c4)cn3CCN3CCCC3)CC2)c1Br [Compound 228]

IC50 (P70S6K (T412E mutant)): 0.2 nM
IC50 (His-AKT (Full Length)): 0.7 nM
Structure (SMILES): CC(C)CNCCn1cc(-c2ccc(F)c(C(F)(F)F)c2)nc1C1CCN(c2ncnc(N)c2C#N)CC1 [Compound 372, 4-Amino-6-{4-[4-(4-fluoro-3-trifluoromethyl-phenyl)-1-(2-isobutylamino-ethyl)-1H-imidazol-2-yl]-piperidin-1-yl}-pyrimidine-5-carbonitrile]

IC50 (P70S6K (T412E mutant)): 2 nM
IC50 (His-AKT (Full Length)): 9.7 nM
Structure (SMILES): CC(C)(C)NCCn1cc(-c2ccc(F)c(C(F)(F)F)c2)nc1C1CCN(c2ncnc(N)c2C(N)=O)CC1 [Compound 377, 4-Amino-6-{4-[1-(2-tert-butylamino-ethyl)-4-(4-fluoro-3-trifluoromethyl-phenyl)-1H-imidazol-2-yl]-piperidin-1-yl}-pyrimidine-5-carboxylic acid amide]

IC50 (P70S6K (T412E mutant)): 2.7 nM
IC50 (His-AKT (Full Length)): 12 nM
Structure (SMILES): NC(=O)c1c(N)ncnc1N1CCC(c2nc(-c3ccc(F)c(C(F)(F)F)c3)cn2CCNCC2CC2)CC1 [Compound 359, 4-Amino-6-{4-[1-[2-(cyclopropylmethyl-amino)-ethyl]-4-(4-fluoro-3-trifluoromethyl-phenyl)-1H-imidazol-2-yl]-piperidin-1-yl}-pyrimidine-5-carboxylic acid amide]

IC50 (P70S6K (T412E mutant)): 0.8 nM
IC50 (His-AKT (Full Length)): 130 nM
Structure (SMILES): N#Cc1c(N)ncnc1N1CCC(c2nc(-c3ccc(F)c(C(F)(F)F)c3)cn2CCO)CC1 [Compound 357, 4-Amino-6-{4-[4-(4-fluoro-3-trifluoromethyl-phenyl)-1-(2-hydroxy-ethyl)-1H-imidazol-2-yl]-piperidin-1-yl}-pyrimidine-5-carbonitrile]

IC50 (P70S6K (T412E mutant)): 1.5 nM
IC50 (His-AKT (Full Length)): 3.6 nM
Structure (SMILES): N#Cc1c(N)ncnc1N1CCC(c2nc(-c3ccc(F)c(C(F)(F)F)c3)cn2CCN)CC1 [Compound 158, 4-amino-6-(4-(1-(2-aminoethyl)-4-(4-fluoro-3-(trifluoromethyl)phenyl)-1H-imidazol-2-yl)piperidin-1-yl)pyrimidine-5-carbonitrile]

IC50 (P70S6K (T412E mutant)): 2.1 nM
IC50 (His-AKT (Full Length)): 2.3 nM
Structure (SMILES): CCc1c(N)ncnc1N1CCC(c2nc(-c3ccc(F)c(C)c3)cn2CC2CNC2)CC1 [Compound 188, 6-(4-(1-(azetidin-3-ylmethyl)-4-(4-fluoro-3-methylphenyl)-1H-imidazol-2-yl)piperidin-1-yl)-5-ethylpyrimidin-4-amine]

IC50 (P70S6K (T412E mutant)): 2.4 nM
IC50 (His-AKT (Full Length)): 9500 nM
Structure (SMILES): Nc1ncnc(N2CCC(c3nc(-c4ccc(F)c(C(F)(F)F)c4)c[nH]3)CC2)c1-c1ccc(F)cc1 [Compound 44, 5-(4-Fluoro-phenyl)-6-{4-[4-(4-fluoro-3-trifluoromethyl-phenyl)-1H-imidazol-2-yl]-piperidin-1-yl}-pyrimidin-4-ylamine]

IC50 (P70S6K (T412E mutant)): 2.6 nM
IC50 (His-AKT (Full Length)): 21 nM
Structure (SMILES): N#Cc1c(N)ncnc1N1CCC(c2nc(-c3cccc(F)c3)cn2CCN2CCCC2)CC1 [Compound 309]

IC50 (P70S6K (T412E mutant)): 2.3 nM
IC50 (His-AKT (Full Length)): 8.4 nM
Structure (SMILES): N#Cc1c(N)ncnc1N1CCC(c2nc(-c3cccc(Cl)c3)cn2CCN2CCCC2)CC1 [Compound 311]
